The source of these data is US9073936B2, “Organic compounds” (INTRA-CELLULAR THERAPIES, INC., priority 2013, dated 2015).

Data set [1] can be described thus: Metabolism rates in human liver microsomes (stability). The settings on record: pooled human liver microsomes, pH 7.5, 0.5 mg/ml protein, 1 μM test compound, NADPH, 37° C., read-out: T1/2 in human liver microsomes. The format is in vitro ADME. On the procedure:
Pooled human liver microsomes (final protein concentration 0.5 mg/ml) are incubated with test compound (final concentration 1 μM) in the presence of a NADPH regenerating system. The final buffer composition is: 1 mM EDTA, 100 mM potassium phosphate pH 7.5. The reactions are initiated by addition of the cofactor NADPH, and terminated after a 0, 15, 30, 45 and 60 minute incubation at 37° C. by addition of cold acetonitrile containing the internal analysis standard. After centrifuging at 4000 rpm for 20 minutes at 4° C., the supernatant are transferred for analysis using HPLC/MS/MS to measure the disappearance of the test compound. The percentage of the test compound remaining over time is calculated relative to the zero time point. The intrinsic clearance rates were calculated based on percentage of compound remaining at the 15-60 min. time points.
Background: Microsomes from liver hold many membrane-bound enzymes, among them those of drug oxidation.

Data set [2] deals with recombinant full length human PDE1A (r-hPDE1A) (Homo sapiens (Human), UniProt P54750). In words: PDE1 inhibition in vitro, IMAP phosphodiesterase assay (r-hPDE1A). The format is biochemical. An excerpt: (§1) Phosphodiesterase 1 (PDE1) is a calcium/calmodulin dependent phosphodiesterase enzyme that converts cyclic guanosine monophosphate (cGMP) to 5′-guanosine monophosphate (5′-GMP). PDE1 can also convert a modified cGMP substrate, such as the fluorescent molecule cGMP-fluorescein, to the corresponding GMP-fluorescein. The generation of GMP-fluorescein from cGMP-fluorescein can be quantitated, using, for example, the IMAP (Molecular Devices, Sunnyvale, Calif.) immobilized-metal affinity particle reagent.
(§2) Briefly, the IMAP reagent binds with high affinity to the free 5′-phosphate that is found in GMP-fluorescein and not in cGMP-fluorescein. The resulting GMP-fluorescein-IMAP complex is large relative to cGMP-fluorescein. Small fluorophores that are bound up in a large, slowly tumbling, complex can be distinguished from unbound fluorophores, because the photons emitted as they fluoresce retain the same polarity as the photons used to excite the fluorescence.
(§3) In the phosphodiesterase assay, cGMP-fluorescein, which cannot be bound to IMAP, and therefore retains little fluorescence polarization, is converted to GMP-fluorescein, which, when bound to IMAP, yields a large increase in fluorescence polarization (Δmp). Inhibition of phosphodiesterase, therefore, is detected as a decrease in Δmp.
(§4) Materials: All chemicals are available from Sigma-Aldrich (St. Louis, Mo.) except for IMAP reagents (reaction buffer, binding buffer, FL-GMP and IMAP beads), which are available from Molecular Devices (Sunnyvale, Calif.). […]
(§5) The reaction is incubated in dark at room temperature for 15 min. […] The plate is incubated at room temperature for 1 hour to allow IMAP binding to proceed to completion, and then placed in an Envision multimode microplate reader (PerkinElmer, Shelton, Conn.) to measure the fluorescence polarization (Δmp).
(§6) A decrease in GMP concentration, measured as decreased Δmp, is indicative of inhibition of PDE activity.

The next data set has as its target PDE1. In words: PDE1 inhibition in vitro, IMAP phosphodiesterase assay. As to conditions: cGMP-fluorescein substrate, read-out: IC50 (PDE1 inhibitory activity). The format is biochemical.
Excerpt: as §1, §2, §3
Materials: All chemicals are available from Sigma-Aldrich (St. Louis, Mo.) except for IMAP reagents (reaction buffer, binding buffer, FL-GMP and IMAP beads), which are available from Molecular Devices (Sunnyvale, Calif.).
Assay: The following phosphodiesterase enzymes may be used: 3′,5′-cyclic-nucleotide-specific bovine brain phosphodiesterase (Sigma, St. Louis, Mo.) and recombinant full length human PDE1A and PDE1B (r-hPDE1A and r-hPDE1B, respectively) which may be produced e.g., in HEK or SF9 cells by one skilled in the art. The PDE1 enzyme is reconstituted with 50% glycerol to 2.5 U/ml. One unit of enzyme will hydrolyze 1.0 μmole of 3′,5′-cAMP to 5′-AMP per min at pH 7.5 at 30° C. […] 99 μl of diluted enzyme solution is added into each well in a flat bottom 96-well polystyrene plate to which 1 μl of test compound dissolved in 100% DMSO is added. The test compounds are mixed and pre-incubated with the enzyme for 10 min at room temperature.
The plate is incubated at room temperature for 1 hour to allow IMAP binding to proceed to completion, and then placed in an Envision multimode microplate reader (PerkinElmer, Shelton, Conn.) to measure the fluorescence polarization (Δmp).
as §6

For data set [3], the target named is recombinant full length human PDE1B (r-hPDE1B) (Homo sapiens (Human), UniProt Q01064). In words: PDE1 inhibition in vitro, IMAP phosphodiesterase assay (r-hPDE1B). The format is biochemical.
Excerpt: as §1, §2, §3, §4, §5, §6

The next data set deals with C57BL/6 mice. In words: Haloperidol induced catalepsy model (bar grip test). As to conditions: haloperidol 3 mg/Kg PO, step down latency. The format is in vivo, mouse. An excerpt:
To evaluate the potential beneficial effects to motor defects present in schizophrenics treated with typical and atypical antipsychotic agents and in Parkinson's disease patients, the compounds of the invention may be tested in a reversal of catalepsy model in which motor freezing, or catalepsy, is induced by potent dopamine D2 receptor antagonists such as haloperidol or risperidone. The method uses the “bar grip test”, in which the front paws of the mouse are placed so as to grip a 3 mm-diameter, suspended wooden bar. A “step down latency” is measured by recording the time until the mouse removes its paws from the wooden bar to the floor surface. Catalepsy is a freezing of the musculature that prevents the mouse from moving off the bar. […]
A catalepsy score is recorded for each mouse at 2, 3, 4, and 6 hours after administration of drugs. […] The latency until the mouse steps both paws down from the bar to the floor surface (i.e., step down latency) is recorded up to 120 sec. […] If none of the 10 attempts are beyond 10 sec, the longest duration recorded is used as the catalepsy score. Otherwise, the initial cataleptic duration (>10 sec) is recorded during the 120 sec testing time. Mean step down latency is calculated for each treatment group.

A further data set concerns rats. In words: Novel Object Recognition assay. The format is in vivo. The settings on record: rat, PO, dosed 2 hours before T1, 24 h interval. The text has this: To measure the cognition-enhancing effects of the compounds of the invention, the candidate compounds may be evaluated in a Novel Object Recognition (NOR) assay. This assay protocol is described in detail in Ennaceur et al., Behav. Brain Res. (1988) 31:47-59 and Prickaerts et al., Eur. J. Pharmacol. (1997) 337:125-136, the contents of each of which are incorporated by reference in their entirety. In this protocol, the rats are introduced to a chamber at time T1 and allowed to interrogate two identical “familiar objects” for six minutes. Twenty-four hours later, they are re-introduced to this chamber, where one of the familiar objects has been replaced with a novel object. The “discrimination index”, a measure of the time spent in close proximity to the novel over the familiar object, may then be measured. Since rodents will forget the original experiment at T1 within 4 hours, this test with a 24 h interval is a measure of strong cognitive enhancement.
This assay protocol can be modified in order to evaluate different phases of memory. There are three general phases of memory, namely, acquisition, consolidation and retrieval. In this modified protocol, the rats may be dosed with the candidate compound two hours before T1 and tested 24 h later without additional dosing. This is a test of the acquisition process. […]

SMILES strings stand for the structures.

By Ki is commonly meant a measure of affinity in units of concentration, obtained from inhibition or displacement. Usually IC50 stands for the midpoint of a concentration-inhibition curve. Turning to `CC(=O)c1ccc(Cn2nc3c(c2Nc2ccc(F)c(C)c2)C(=O)N(C)C2=NC(C)(C)CN23)cc1` [Example 4, 7,8-Dihydro-2-(4-acetylbenzyl)-3-(4-fluoro-3-methylphenylamino)-5,7,7-trimethyl-[2H]-imidazo-[1,2-a]pyrazolo[4,3-e]pyrimidin-4(5H)-one], the half-life at 1 μM in data set [1] came out at 1.12 h. For the same molecule, the figures for the Ki in data set [2] and in data set [3] were 0.1 nM and 0.4 nM, respectively. In addition, the IC50 at PDE1 was at most 5 nM.

As to `CC(=O)c1ccc(Cn2nc3c(c2Nc2ccc(F)cc2)C(=O)N(C)C2=NC(C)(C)CN23)cc1` [Example 1, 7,8-Dihydro-2-(4-acetylbenzyl)-3-(4-fluorophenylamino)-5,7,7-trimethyl-[2H]-imidazo-[1,2-a]pyrazolo[4,3-e]pyrimidin-4(5H)-one], the “minimal effective dose, catalepsy model” value with C57BL/6 mice came out at 0.1 mg/kg. Besides, the half-life at 1 μM in data set [1] amounted to 2.85 h. In addition, the “minimal effective dose, Novel Object Recognition” value with rats was 0.1 mg/kg. Besides, at PDE1, the IC50 was at most 5 nM.

For the molecule `CC(O)c1ccc(Cn2nc3c(c2Nc2ccc(F)cc2)C(=O)N(C)C2=NC(C)(C)CN23)cc1` (stereo not drawn) [Example 2, 7,8-Dihydro-2-(4-(1-hydroxyethyl)benzyl)-3-(4-fluorophenylamino)-5,7,7-trimethyl-[2H]-imidazo-[1,2-a]pyrazolo[4,3-e]pyrimidin-4(5H)-one], the Ki in data set [2] was found to be 0.5 nM; in data set [3], 4 nM. Further, at PDE1, the 50% inhibitory concentration (IC50) is at most 5 nM.

For `CC(=O)c1ccc(Cn2nc3c(c2Nc2ccc(F)c(F)c2)C(=O)N(C)C2=NC(C)(C)CN23)cc1` [Example 3, 7,8-Dihydro-2-(4-acetylbenzyl)-3-(3,4-difluorophenylamino)-5,7,7-trimethyl-[2H]-imidazo-[1,2-a]pyrazolo[4,3-e]pyrimidin-4(5H)-one], in data set [1], the half-life at 1 μM is 1.3 h. Besides, the Ki in data set [2] stood at 0.3 nM; in data set [3] it was 4 nM. In addition, at PDE1, the IC50 was at most 5 nM.
